Measured values from patent US4233303A, “Xanthine derivatives” (priority 1977, dated 1980).
“Also recorded” adds a separate entry of the source. Read-outs that look alike come from different tables or passages of the source.

Key:
[1] = test system: actively sensitized rat (anaphylactic bronchospasm); experiment: Active lung anaphylaxis in the rat (increase in intratracheal pressure after ovalbumin); type: in vivo, Sprague Dawley (printed "Spargue Dawley"); conditions: for Increase in intratracheal pressure (+ΔP): 1 min before ovalbumin, mean ± S.E.M.; for ED50: Rattus norvegicus, iv; for doses needed for protective effect / protective effect against anaphylactic bronchospasm (words, conclusion): actively sensitized rat; for protective effect against anaphylactic bronchospasm (words, conclusion): theophylline 0.010-2.5 mg/kg, disodiumcromoglicate 0.1-5.0 mg/kg; for concentrations showing inhibition of the anaphylactic bronchospasm / effect on the increase of the intratracheal pressure / maximum inhibition of the anaphylactic bronchospasm: 1 minute before ovalbumin
Description: The antianaphylactic effect was tested on actively sensitized laboratory animals.
The active sensitization of the animals was achieved by injecting ovalbumin, a protein. This administration makes the animals hypersensitive to subsequent challenge of ovalbumin with bronchoconstriction as a consequence. The antianaphylactic effect of the test compounds was tested in vivo by exposing the actively sensitized animals to ovalbumin and measuring the protective effect of test substance on the intratracheal pressure.
Rats, Spargue Dawley, 250 g, were sensibilized by 1.0 mg ovalbumin (Sigma) and 200 mg Al(OH)3 gel suspended in 1.0 ml saline. This suspension was administered subcutaneously at 2 sites (0.5 ml/site) on the abdominal side. This procedure was done with the animals lightly anesthetized by Mebumal. 18-26 days later the animals were used in the provocation experiments
The animal was anesthetized by i.p. injection of Mebumal, 50 mg/kg i.p. The trachea was cannulated and the animals was ventilated by a pump (Braun). The frequency of respiration was about 80 beats/min. The intratracheal pressure was measured by a Statham pressure transducer (P23AC). The normal pressure variations were 0- cm H2 O.
To inhibit spontaneous respiration there was need for Curare 0.8 mg/kg i.v. Alongside with the respiratory measurements the heart rate and arterial blood pressure was measured by a Statham pressure transducer connected with a. carotis. The blood pressure, pulse rate and intratracheal pressure were registered by means of a Grass polygraph.
Bronochoconstriction was induced by 5HT, 4-5 injections in v. jugularis of a standard dose. After that a single dose of ovalbumin, 5 mg, was administered. Test compound was administered 1 min before the challenging dose of ovalbumin. Because of desensitization towards the antigen (ovalbumin) this could only be administered once in each animal.
Calculation of anaphylactic bronchoconstriction
The maximum increase of the intratracheal pressure caused by ovalbumin was measured and this was expressed as the percentage increase of the intratracheal pressure. Comparisons were made between a group of control animals not treated with test compound and groups of animals treated with different doses of test compound.
They were initially dissolved in 0.8 ml NaOH (0.5 M) and 9.2 ml saline. This stock solution of compound, 10 mg/ml, was diluted further with saline if necessary. […] The compound was dissolved in saline.

[2] = test system: basophil leucocytes and isolated lung tissue; conditions: cited from earlier work
[3] = read-out: ED 50 values (50% protection against the anaphylactic bronchospasm), i.v., extrapolated
[4] = read-out: Extrapolated intravenous dose for 50% protection (ED 50), i.v., Table VIII

SMILES | Increase in intratracheal pressure (+ΔP) ([1]; 0.010 mg/kg i.v.) [%] | Increase in intratracheal pressure (+ΔP) ([1]; 0.100 mg/kg i.v.) [%] | Increase in intratracheal pressure (+ΔP) ([1]; 0.500 mg/kg i.v.) [%] | ED50 [1, 3] [mg/kg] | ED50 [1, 4] [mg/kg] | doses needed for protective effect ([1]; i.v.) [mg/kg] | protective effect against anaphylactic bronchospasm (words, conclusion) [1] | concentrations showing inhibition of the anaphylactic bronchospasm ([1]; i.v.) [mg/kg] | effect on the increase of the intratracheal pressure ([1]; i.v.) | maximum inhibition of the anaphylactic bronchospasm ([1]; i.v.) | Increase in intratracheal pressure (+ΔP) ([1]; 0.250 mg/kg i.v.) [%] | Increase in intratracheal pressure (+ΔP) ([1]; 1.00 mg/kg i.v.) [%] | Increase in intratracheal pressure (+ΔP) ([1]; 0.025 mg/kg i.v.) [%] | Increase in intratracheal pressure (+ΔP) ([1]; 0.05 mg/kg i.v.) [%] | ED 50 values (50% protection against the anaphylactic bronchospasm) ([1]; i.v., extrapolated) [mg/kg] | Increase in intratracheal pressure (+ΔP) ([1]; 5.0 mg/kg i.v.) [%] | ED 50 result in words (dose-response shape) ([1]; i.v.) | inhibition of the anaphylactic release of histamine [2]
Cc1nc2c([nH]1)c(=O)n(C)c(=O)n2-c1ccccc1 [D 4026, 3,7-dihydro-1,8-dimethyl-3-phenyl-1H-purine-2,6-dione] | 33 ± 6 | 7 ± 2 | 9 ± 5 | < 0.1 | 0.016 | 0.01 to 1.0 | show protective effect | 0.01 to 0.10 | diminished the increase of the intratracheal pressure | about 87% | – | – | – | – | – | – | – | –
Cc1nc2c([nH]1)c(=O)n(C)c(=O)n2CC(C)O (stereo not drawn) [D 4086, 3,7-dihydro-1,8-dimethyl-3-(2-hydroxypropyl)-1H-purine-2,6-dione] | – | 26 ± 6 | 2 ± 1 | 0.1 to 0.27 | 0.12 | 0.01 to 1.0 | show protective effect | – | diminished the increase of the intratracheal pressure | – | 14 ± 3 | – | – | – | – | – | – | –
CCCn1c(=O)c2[nH]c(C)nc2n(CC(C)O)c1=O (stereo not drawn) [D 4122, 3,7-dihydro-3-(2-hydroxypropyl)-8-methyl-1-propyl-1H-purine-2,6-dione] | 34 ± 4 | 23 ± 5 | – | < 0.1 | 0.01 | 0.01 to 1.0 | show protective effect | 0.01 to 1.00 | diminished the increase of the intratracheal pressure | 79% | – | 18 ± 4 | – | – | – | – | – | –
Cc1nc2c([nH]1)c(=O)n(C)c(=O)n2C1CCCC1 [D 4136, 3-cyclopentyl-3,7-dihydro-1,8-dimethyl-1H-purine-2,6-dione] | – | 55 | – | – | 0.13 | 0.01 to 1.0 | show protective effect | – | diminished the increase of the intratracheal pressure | – | – | 27 ± 4 | 36 ± 4 | – | – | – | – | –
CCn1c(=O)c2[nH]c(C)nc2n(CC2CCCCC2)c1=O [D 4139, 3,7-dihydro-1-ethyl-8-methyl-3-cyclohexylmethyl-1H-purine-2,6-dione] | 74 ± 22 | 35 ± 9 | – | < 0.1 | 0.04 | 0.01 to 1.0 | show protective effect | 0.01 to 0.10 | diminished the increase of the intratracheal pressure | 68% | – | – | – | 50 ± 26 | 0.10 to 0.27 | – | – | –
O=C(O)c1cc(=O)c2c(OCC(O)COc3cccc4oc(C(=O)O)cc(=O)c34)cccc2o1 [disodiumcromoglicate, reference compound] | – | 46 ± 7 | – | – | – | – | – | – | – | – | – | 22 ± 8 | – | – | – | 46 ± 6 | bell shaped curves which made it impossible to calculate ED 50 values; also recorded: bell-shaped curve | –
Cn1c(=O)c2[nH]cnc2n(C)c1=O [theophylline] | – | – | – | – | – | – | – | – | – | – | – | – | – | – | – | – | – | capable of inhibiting the anaphylactic release of histamine
